# Source: patent publication US6534447B1, “Herbicidal pyridine compounds” (BASF Aktiengesellschaft, priority 1999, dated 2003)
# Legend:
# Type in all cases: in vivo
# [1] = system: Dolium multiflorum (LOLMU, ryegrass); assay: Post-emergence herbicidal evaluation; settings: rate 0.100 kg/ha, 3 weeks after treatment
# Experimental: (§1) These acetone solutions are diluted with water and the resulting formulations applied at dosage levels equivalent of about 0.025 to 0.4 kg per hectare of test compound per pot. After spraying the plants are placed on greenhouse benches and are cared for in the usual manner, commensurate with conventional greenhouse practices. From 3 weeks after treatment, the seedling plants are examined and rated according to the rating system provided above. A rating 0 indicates growth as untreated control, a rating 9 indicates death.
# [2] = system: Matricaria inodora (MATIN, mayweed); assay: Post-emergence herbicidal evaluation; settings: 3 weeks after treatment
# Experimental: as §1
# [3] = system: Ipomoea hederacea (IPOHE, morning glory); assay: Post-emergence herbicidal evaluation; settings: 3 weeks after treatment
# Experimental: as §1
# [4] = system: Echinochloa grus galli (ECHCG, barnyard grass); assay: Post-emergence herbicidal evaluation; settings: 3 weeks after treatment
# Experimental: as §1
# [5] = system: Abutilon theophrasti (ABUTH, velvetleaf); assay: Post-emergence herbicidal evaluation; settings: 3 weeks after treatment
# Experimental: as §1
# [6] = system: Setaria viridis (SETVI, green foxtail); assay: Post-emergence herbicidal evaluation; settings: 3 weeks after treatment
# Experimental: as §1
# [7] = system: Alopecurus myosuroides (ALOMY, black grass); assay: Post-emergence herbicidal evaluation; settings: 3 weeks after treatment
# Experimental: as §1
# [8] = system: Galium aparine (GALAP, cleaver); assay: Post-emergence herbicidal evaluation; settings: 3 weeks after treatment
# Experimental: as §1
# [9] = system: Stellaria media (STEME, chickweed); assay: Post-emergence herbicidal evaluation; settings: 3 weeks after treatment
# Experimental: as §1
# [10] = system: Zea mays (ZEAMX, maize); assay: Pre-emergence herbicidal evaluation (crop); settings: 3 weeks after treatment
# From the text: (§2) The pre-emergence herbicidal activity of the compounds of the present invention is exemplified by the following test in which the seeds of a variety of monocotyledonous and dicotyledonous plants are seperately mixed with potting soil and planted on top of approximately one inch of soil in separate post. After planting, the pots are sprayed with the selected aqueous acetone solution. containing test compound in sufficient quantity to provide the equivalent of about 0.025 to 0.4 kg per hectare of test compound per pot. The treated pots are then placed on greenhouse benches, watered and cared for in accordance with conventional greenhouse procedures. From 3 weeks after treatment, the tests are terminated and each pot is examined and rated according to the rating system set forth below. [table] [table]
# [11] = system: Triticum aestivum (TRZAW, winter wheat); assay: Pre-emergence herbicidal evaluation (crop); settings: 3 weeks after treatment
# From the text: as §2
# [12] = system: Glycine max (GLXMA, soyabeans); assay: Pre-emergence herbicidal evaluation (crop); settings: 3 weeks after treatment
# From the text: as §2
# [13] = system: Matricaria inodora (MATIN, mayweed); assay: Pre-emergence herbicidal evaluation; settings: 3 weeks after treatment
# From the text: as §2
# [14] = system: Ipomoea hederacea (IPOHE, morning glory); assay: Pre-emergence herbicidal evaluation; settings: 3 weeks after treatment
# From the text: as §2
# [15] = system: Echinochloa grus galli (ECHCG, barnyard grass); assay: Pre-emergence herbicidal evaluation; settings: 3 weeks after treatment
# From the text: as §2
# [16] = system: Abutilon theophrasti (ABUTH, velvetleaf); assay: Pre-emergence herbicidal evaluation; settings: 3 weeks after treatment
# From the text: as §2
# [17] = system: Setaria viridis (SETVI, green foxtail); assay: Pre-emergence herbicidal evaluation; settings: 3 weeks after treatment
# From the text: as §2
# [18] = system: Alopecurus myosuroides (ALOMY, black grass); assay: Pre-emergence herbicidal evaluation; settings: 3 weeks after treatment
# From the text: as §2
# [19] = system: Galium aparine (GALAP, cleaver); assay: Pre-emergence herbicidal evaluation; settings: 3 weeks after treatment
# From the text: as §2
# [20] = system: Stellaria media (STEME, chickweed); assay: Pre-emergence herbicidal evaluation; settings: 3 weeks after treatment
# From the text: as §2
smiles,measurement,setting,value
Cc1cc(OCC=C(Cl)SC(F)(F)F)nc(Oc2cc(C(F)(F)F)nn2C)c1 [Example 5],LOLMU rating,[1],8 (8 - Approaching complete kill)
same,MATIN rating,[2]; rate 0.025 kg/ha,6 (6 - Herbicidal effect)
same,MATIN rating,[2]; rate 0.100 kg/ha,7 (7 - Good herbicidal effect)
same,MATIN rating,[2]; rate 0.400 kg/ha,7 (7 - Good herbicidal effect)
same,IPOHE rating,[3]; rate 0.025 kg/ha,9 (9 - Complete kill)
same,IPOHE rating,[3]; rate 0.100 kg/ha,9 (9 - Complete kill)
same,IPOHE rating,[3]; rate 0.400 kg/ha,9 (9 - Complete kill)
same,ECHCG rating,[4]; rate 0.025 kg/ha,7 (7 - Good herbicidal effect)
same,ECHCG rating,[4]; rate 0.100 kg/ha,8 (8 - Approaching complete kill)
same,ECHCG rating,[4]; rate 0.400 kg/ha,8 (8 - Approaching complete kill)
same,ABUTH rating,[5]; rate 0.025 kg/ha,7 (7 - Good herbicidal effect)
same,ABUTH rating,[5]; rate 0.100 kg/ha,8 (8 - Approaching complete kill)
same,ABUTH rating,[5]; rate 0.400 kg/ha,8 (8 - Approaching complete kill)
same,SETVI rating,[6]; rate 0.025 kg/ha,9 (9 - Complete kill)
same,SETVI rating,[6]; rate 0.100 kg/ha,9 (9 - Complete kill)
same,SETVI rating,[6]; rate 0.400 kg/ha,9 (9 - Complete kill)
same,ALOMY rating,[7]; rate 0.025 kg/ha,6 (6 - Herbicidal effect)
same,ALOMY rating,[7]; rate 0.100 kg/ha,7 (7 - Good herbicidal effect)
same,ALOMY rating,[7]; rate 0.400 kg/ha,8 (8 - Approaching complete kill)
same,GALAP rating,[8]; rate 0.025 kg/ha,7 (7 - Good herbicidal effect)
same,GALAP rating,[8]; rate 0.100 kg/ha,8 (8 - Approaching complete kill)
same,GALAP rating,[8]; rate 0.400 kg/ha,8 (8 - Approaching complete kill)
same,STEME rating,[9]; rate 0.025 kg/ha,4 (4 - Injury)
same,STEME rating,[9]; rate 0.100 kg/ha,5 (5 - Definite injury)
same,STEME rating,[9]; rate 0.400 kg/ha,7 (7 - Good herbicidal effect)
same,ZEAMX rating,[10]; rate 0.025 kg/ha,2 (2 - Slight effect)
same,ZEAMX rating,[10]; rate 0.100 kg/ha,3 (3 - Moderate effect)
same,ZEAMX rating,[10]; rate 0.400 kg/ha,4 (4 - Injury)
same,TRZAW rating,[11]; rate 0.025 kg/ha,2 (2 - Slight effect)
same,TRZAW rating,[11]; rate 0.100 kg/ha,3 (3 - Moderate effect)
same,TRZAW rating,[11]; rate 0.400 kg/ha,6 (6 - Herbicidal effect)
same,GLXMA rating,[12]; rate 0.025 kg/ha,2 (2 - Slight effect)
same,GLXMA rating,[12]; rate 0.100 kg/ha,2 (2 - Slight effect)
same,GLXMA rating,[12]; rate 0.400 kg/ha,3 (3 - Moderate effect)
same,MATIN rating,[13]; rate 0.025 kg/ha,8 (8 - Approaching complete kill)
same,MATIN rating,[13]; rate 0.100 kg/ha,8 (8 - Approaching complete kill)
same,MATIN rating,[13]; rate 0.400 kg/ha,9 (9 - Complete kill)
same,IPOHE rating,[14]; rate 0.025 kg/ha,8 (8 - Approaching complete kill)
same,IPOHE rating,[14]; rate 0.100 kg/ha,9 (9 - Complete kill)
same,IPOHE rating,[14]; rate 0.400 kg/ha,9 (9 - Complete kill)
same,ECHCG rating,[15]; rate 0.025 kg/ha,6 (6 - Herbicidal effect)
same,ECHCG rating,[15]; rate 0.100 kg/ha,8 (8 - Approaching complete kill)
same,ECHCG rating,[15]; rate 0.400 kg/ha,9 (9 - Complete kill)
same,ABUTH rating,[16]; rate 0.025 kg/ha,5 (5 - Definite injury)
same,ABUTH rating,[16]; rate 0.100 kg/ha,8 (8 - Approaching complete kill)
same,ABUTH rating,[16]; rate 0.400 kg/ha,8 (8 - Approaching complete kill)
same,SETVI rating,[17]; rate 0.025 kg/ha,8 (8 - Approaching complete kill)
same,SETVI rating,[17]; rate 0.100 kg/ha,9 (9 - Complete kill)
same,SETVI rating,[17]; rate 0.400 kg/ha,9 (9 - Complete kill)
same,ALOMY rating,[18]; rate 0.025 kg/ha,7 (7 - Good herbicidal effect)
same,ALOMY rating,[18]; rate 0.100 kg/ha,8 (8 - Approaching complete kill)
same,ALOMY rating,[18]; rate 0.400 kg/ha,8 (8 - Approaching complete kill)
same,GALAP rating,[19]; rate 0.025 kg/ha,5 (5 - Definite injury)
same,GALAP rating,[19]; rate 0.100 kg/ha,7 (7 - Good herbicidal effect)
same,GALAP rating,[19]; rate 0.400 kg/ha,7 (7 - Good herbicidal effect)
same,STEME rating,[20]; rate 0.025 kg/ha,9 (9 - Complete kill)
same,STEME rating,[20]; rate 0.100 kg/ha,9 (9 - Complete kill)
same,STEME rating,[20]; rate 0.400 kg/ha,9 (9 - Complete kill)
